# Data as given in patent US20240279710A1, “FLUORESCENT PROBES” (TOHOKU TECHNO ARCH CO., LTD., priority 2021, published 2024).
# How the values were obtained:
# SH-SY5Y cells = experiment: Combined use with calpain inhibitor in live cell imaging; format: cell-based; conditions: inhibitor 10 μM, 5 μM Compound 19, SH-SY5Y cells; FIG. 30
# Experimental: Whether or not the improvement in enzymatic reactivity between the compound of the present invention and a calpain confirmed by the above-mentioned experiment remained the same even in a cell was verified. Calpain activity imaging in SH-SY5Y cells was performed on each of Compounds 16 and 19. Specifically, the SH-SY5Y cells (American Type Culture Collection, VA, USA) were cultured in a mixed medium of Dulbecco's modified eagle medium and Ham's F-12 medium (DMEM/F-12; Thermo Fisher Scientific, Inc.) (containing 10% fetal bovine serum (FBS; Thermo Fisher Scientific, Inc., MA, USA) and 100 U/mL penicillin-100 μg/mL streptomycin (PS; Thermo Fisher Scientific, Inc.)) under the conditions of 37° C. and 5% CO2-95% air. 6×10^4 to 8×10^4 Cells/well of the cells were seeded in a multiwell plate (μ-Plate 96 Well; ibidi, Grafelfing, Germany) coated with poly-D-lysine (Thermo Fisher Scientific, Inc.) and laminin (BD Biosciences, CA, USA), and were preincubated in a culture solution. Immediately after the removal of the culture solution in the wells, 200 μL of an assay solution (a culture solution containing a 5 μM probe) was added thereto, and the cells were incubated under the conditions of 37° C. and 5% CO2-95% air. 10 Minutes after that, a bright field image and a fluorescence image were taken with a confocal microscope (LSM 710, Carl Zeiss AG, Oberkochen, Germany). […]
# calpain = experiment: Combined use with calpain inhibitor in rat NMDA model (Compound 19 as probe); format: in vivo
# Experimental: (§1) Carboxymethylcellulose sodium was dissolved in distilled water to prepare a 0.5% (w/v) CMC solution. An inhibitor-containing CMC solution was prepared by suspending SNJ-1945 in the 0.5% (w/v) CMC solution so that its concentration became 2.5% (w/v). Rats were each subjected to general anesthesia with isoflurane, and NMDA (10 mM, 2 μL) was administered into an eye of the rat. 2 Hours after the administration of NMDA, the inhibitor-containing CMC solution was intraperitoneally administered to the rat so that the dose of SNJ-1945 became 100 mg/kg body weight. 4 Hours after the administration of the inhibitor (6 hours after the administration of NMDA), the rat was anesthetized with isoflurane again, and Compound 19 (15 μM, 4 μL) was administered into the eye. Images of an ocular fundus were taken with F-10 20 minutes to 30 minutes after the administration of Compound 19. In a control group (N=8), the same operations as those in an SNJ-1945-administered group (N=8) except the following were performed: the 0.5% (w/v) CMC solution was administered instead of the inhibitor-containing CMC solution.
# as §1, with “orally” for “intraperitoneally”, “(N=7),” for “(N=8),”
# Carboxymethylcellulose sodium was dissolved in distilled water to prepare a 0.5% (w/v) CMC solution. An inhibitor-containing CMC solution was prepared by suspending SNJ-1945 in the 0.5% (w/v) CMC solution so that its concentration became 2.5% (w/v). The inhibitor-containing CMC solution was intraperitoneally administered to each of rats so that the dose of SNJ-1945 became 100 mg/kg body weight. 2 Hours after the intraperitoneal administration, the rat was subjected to general anesthesia with isoflurane, and NMDA (10 mM, 2 μL) was administered into an eye thereof. […]
smiles,measurement,setting,value
COCCOCCOC(=O)N[C@@H](CC(C)C)C(=O)N[C@@H](Cc1ccccc1)C(=O)C(=O)NC1CC1 [SNJ-1945],intracellular fluorescence intensity (Compound 19 probe) with vs without inhibitor,SH-SY5Y cells,attenuates
same,number of HMRG-positive nerve cells compared to control group,"calpain; 100 mg/kg intraperitoneally 2 hours after NMDA, Compound 19 (15 μM, 4 μL) 4 hours later, FIG. 32",significantly reduced
same,number of HMRG-positive nerve cells compared to control group,"calpain; 100 mg/kg intraperitoneally 2 hours before NMDA, Compound 19 (15 μM, 4 μL) 6 hours after NMDA, FIG. 34",significantly reduced
same,number of HMRG-positive nerve cells compared to control group,"calpain; 100 mg/kg orally 2 hours after NMDA, Compound 19 (15 μM, 4 μL) 4 hours later, FIG. 33",significantly reduced
same,"number of HMRG-positive nerve cells compared to group administered any other calpain inhibitor (C2I, MDL 28,170, PD-151746)","calpain; orally as in Example 16, FIG. 35",significantly reduced
